Measured values as given in US20230312587A1, “PTERIDINONE COMPOUNDS AND USES THEREOF” (Vertex Pharmaceutical Incorporated, priority 2018, published 2023).

test system: β-catenin-TCF-mediated reporter transcription activity in Colo 205 cells; experiment: Colo 205 reporter assay (TCF/LEF luciferase); assay type: cell-based; settings: Homo sapiens, COLO 205, 5 h, Colo 205 TCF/LEF luciferase reporter, five hours after addition of compound; read-out: TCF reporter Colo205 IC50
Procedure, shortened: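 Luciferase signal from a TCF/LEF-driven reporter, stably integrated in Colo 205 colon cancer cells, was measured 5 h after compound addition.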

| IC50 | SMILES |
| --- | --- |
| 300 to 1000 nM | Cc1nc(N[C@H]2C[C@H](Sc3ccc(F)cc3)C2)nc2c1NC(=O)[C@H](C)N2C [Compound 303, (7S)-2-((trans-3-((4-fluorophenyl)thio)cyclobutyl)amino)-4,7,8-trimethyl-7,8-dihydropteridin-6(5H)-one] |
| 300 to 1000 nM | Cc1nc(N[C@H]2C[C@@H](Sc3ccc(F)cc3)C2)nc2c1NC(=O)[C@H](C)N2C [Compound 304, (7S)-2-((cis-3-((4-fluorophenyl)thio)cyclobutyl)amino)-4,7,8-trimethyl-7,8-dihydropteridin-6(5H)-one] |
| 1000 to 5000 nM | Cc1nc(N[C@@H]2CO[C@H](COc3cc(F)c(F)c(F)c3)C2)nc2c1NC(=O)[C@H](C)N2C [Compound 308, (7S)-4,7,8-trimethyl-2-(((3S,5S)-5-((3,4,5-trifluorophenoxy)methyl)tetrahydrofuran-3-yl)amino)-7,8-dihydropteridin-6(5H)-one] |
| < 300 nM | CCN1C(=O)[C@H](C)N(C)c2nc(N[C@H]3C[C@H](Oc4cc(F)c(F)c(F)c4)C3)nc(C)c21 [Compound 312, (7S)-5-ethyl-4,7,8-trimethyl-2-((trans-3-(3,4,5-trifluorophenoxy)-cyclobutyl)amino)-7,8-dihydropteridin-6(5H)-one] |
| ≥ 5000 nM | Cc1nc(N[C@H]2C[C@H](Oc3cc(F)c(F)c(F)c3)C2)nc2c1N(CC(F)(F)F)C(=O)[C@H](C)N2C [Compound 313, (7S)-4,7,8-trimethyl-5-(2,2,2-trifluoroethyl)-2-((trans-3-(3,4,5-trifluorophenoxy)cyclobutyl)-amino)-7,8-dihydropteridin-6(5H)-one] |
| 300 to 1000 nM | Cc1nc(N[C@H]2C[C@H](Oc3cncc(C(F)(F)F)c3)C2)nc2c1N(C)C(=O)[C@H](C)N2C [Compound 314, (7S)-4,5,7,8-tetramethyl-2-((trans-3-((5-(trifluoromethyl)pyridin-3-yl)oxy)cyclobutyl)amino)-7,8-dihydropteridin-6(5H)-one] |
| 300 to 1000 nM | Cc1nc(N[C@H]2C[C@H](Sc3ccc(C(F)(F)F)cc3)C2)nc2c1NC(=O)[C@H](C)N2C [Compound 317, (7S)-4,7,8-trimethyl-2-((trans-3-((4-(trifluoromethyl)phenyl)thio)-cyclobutyl)amino)-7,8-dihydropteridin-6(5H)-one] |
| < 300 nM | Cc1nc(N[C@H]2C[C@H](Oc3ccc(C(F)(F)F)nc3)C2)nc2c1N(C)C(=O)[C@H](C)N2C [Compound 323, (7S)-4,5,7,8-tetramethyl-2-((trans-3-((6-(trifluoromethyl)pyridin-3-yl)oxy)cyclobutyl)amino)-7,8-dihydropteridin-6(5H)-one] |
| < 300 nM | [2H]C([2H])([2H])N1C(=O)[C@H](C)N(C)c2nc(N[C@H]3C[C@H](Oc4cc(F)c(F)c(F)c4)C3)nc(C)c21 [Compound 327, (7S)-4,7,8-trimethyl-5-(methyl-d3)-2-((trans-3-(3,4,5-trifluorophenoxy)-cyclobutyl)-amino)-7,8-dihydropteridin-6(5H)-one] |
| < 300 nM | [2H]C([2H])([2H])C([2H])([2H])N1C(=O)[C@H](C)N(C)c2nc(N[C@H]3C[C@H](Oc4cc(F)c(F)c(F)c4)C3)nc(C)c21 [Compound 328, (7S)-5-(ethyl-d5)-4,7,8-trimethyl-2-((trans-3-(3,4,5-trifluorophenoxy)-cyclobutyl)amino)-7,8-dihydropteridin-6(5H)-one] |
| < 300 nM | Cc1nc(N[C@H]2C[C@H](Oc3cnc(C(F)(F)F)nc3)C2)nc2c1NC(=O)[C@H](C)N2C [Compound 333, (7S)-4,7,8-trimethyl-2-((trans-3-((2-(trifluoromethyl)pyrimidin-5-yl)oxy)cyclobutyl)amino)-7,8-dihydropteridin-6(5H)-one] |
| 300 to 1000 nM | Cc1nc(N[C@H]2C[C@H](Oc3cnc(C(F)(F)F)nc3)C2)nc2c1N(C)C(=O)[C@H](C)N2C [Compound 334, (7S)-4,5,7,8-tetramethyl-2-((trans-3-((2-(trifluoromethyl)pyrimidin-5-yl)oxy)cyclobutyl)amino)-7,8-dihydropteridin-6(5H)-one] |

The next lines start with the molecule.

| SMILES | IC50 |
| --- | --- |
| Cc1nc(NC2COC(Cn3nccc3C(F)(F)F)C2)nc2c1NC(=O)[C@H](C)N2C (stereo partly drawn) [Compound 306, (7S)-4,7,8-trimethyl-2-((cis-5-((5-(trifluoromethyl)-1H-pyrazol-1-yl)methyl)-tetrahydrofuran-3-yl)amino)-7,8-dihydropteridin-6(5H)-one] | 1000 to 5000 nM |
| Cc1nc(N[C@H]2CO[C@@H](COc3cc(F)c(F)c(F)c3)C2)nc2c1NC(=O)[C@H](C)N2C [Compound 309, (7S)-4,7,8-trimethyl-2-(((3R,5R)-5-((3,4,5-trifluorophenoxy)methyl)-tetrahydrofuran-3-yl)amino)-7,8-dihydropteridin-6(5H)-one] | 300 to 1000 nM |
| Cc1nc(N[C@H]2C[C@H](Oc3cncc(C(F)(F)F)c3)C2)nc2c1NC(=O)[C@H](C)N2C [Compound 315, (7S)-4,7,8-trimethyl-2-((trans-3-((5-(trifluoromethyl)pyridin-3-yl)oxy)cyclobutyl)amino)-7,8-dihydropteridin-6(5H)-one] | < 300 nM |
| Cc1nc(N[C@H]2C[C@H](Sc3ccc(C(F)(F)F)cc3)C2)nc2c1N(C)C(=O)[C@H](C)N2C [Compound 320, (7S)-4,5,7,8-tetramethyl-2-((trans-3-((4(trifluoromethyl)phenyl)thio)-cyclobutyl)-amino)-7,8-dihydropteridin-6(5H)-one] | 1000 to 5000 nM |
| Cc1nc(N[C@H]2C[C@@H](Sc3ccc(C(F)(F)F)cc3)C2)nc2c1NC(=O)[C@H](C)N2C [Compound 321, (7S)-4,7,8-trimethyl-2-((cis-3-((4-(trifluoromethyl)phenyl)thio)cyclobutyl)amino)-7,8-dihydropteridin-6(5H)-one] | 300 to 1000 nM |
| Cc1nc(N[C@H]2C[C@@H](Sc3ccc(C(F)(F)F)cc3)C2)nc2c1N(C)C(=O)[C@H](C)N2C [Compound 322, (7S)-4,5,7,8-tetramethyl-2-((cis-3-((4-(trifluoromethyl)phenyl)thio)cyclobutyl)amino)-7,8-dihydropteridin-6(5H)-one] | 300 to 1000 nM |
| Cc1nc(N[C@H]2C[C@H](Oc3ccc(OC(F)(F)F)cc3)C2)nc2c1N(C)C(=O)[C@H](C)N2C [Compound 325, (7S)-4,5,7,8-tetramethyl-2-((trans-3-(4-(trifluoromethoxy)phenoxy)-cyclobutyl)amino)-7,8-dihydropteridin-6(5H)-one] | 300 to 1000 nM |
| Cc1nc(N[C@H]2C[C@H](Oc3ccc(OC(F)(F)F)cc3)C2)nc2c1NC(=O)[C@H](C)N2C [Compound 326, (7S)-4,7,8-trimethyl-2-((trans-3-(4-(trifluoromethoxy)phenoxy)-cyclobutyl)amino)-7,8-dihydropteridin-6(5H)-one] | < 300 nM |
| Cc1nc(N[C@H]2C[C@H](Sc3cc(F)c(F)c(F)c3)C2)nc2c1N(C)C(=O)[C@H](C)N2C [Compound 330, (7S)-4,5,7,8-tetramethyl-2-((trans-3-((3,4,5-trifluorophenyl)thio)-cyclobutyl)amino)-7,8-dihydropteridin-6(5H)-one] | 300 to 1000 nM |
| Cc1nc(N[C@H]2C[C@@H](Sc3cc(F)c(F)c(F)c3)C2)nc2c1N(C)C(=O)[C@H](C)N2C [Compound 331, (7S)-4,5,7,8-tetramethyl-2-((cis-3-((3,4,5-trifluorophenyl)thio)cyclobutyl)amino)-7,8-dihydropteridin-6(5H)-one] | < 300 nM |
